Test results reported in paper PMC7759012 (Biochemistry, 2020).

Columns and labels:
Format in all cases: binding
[1] = molecular target: BirA (E. coli biotin protein ligase; BirA wt) (Escherichia coli, UniProt P06709, R118A); experiment: ITC, direct titration, single-site model
[2] = molecular target: BirA (E. coli biotin protein ligase; BirA wt) (Escherichia coli, UniProt P06709, E313A); experiment: ITC, direct titration, single-site model
[3] = molecular target: BirA (E. coli biotin protein ligase; BirA wt) (Escherichia coli, UniProt P06709, K183A); experiment: ITC, direct titration, single-site model
[4] = molecular target: BirA (E. coli biotin protein ligase; BirA wt) (Escherichia coli, UniProt P06709); experiment: ITC, TAPS, proton linkage; conditions: pH 6.0; 10 mM Bistris, citrate or MES with 200 mM KCl, 2.5 mM MgCl2

| SMILES | Kd [1] [nM] | Kd [2] [nM] | Kd [3] [nM] | ITC, TAPS, proton linkage (enthalpy only) [4] |
| --- | --- | --- | --- | --- |
| Nc1ncnc2c1ncn2[C@@H]1O[C@H](COP(=O)(O)OC(=O)CCCC[C@@H]2SC[C@@H]3NC(=O)N[C@@H]32)[C@@H](O)[C@H]1O [bio-5'-AMP] | 1.3 | 10 | 22 | – |
| Nc1ncnc2c1ncn2[C@@H]1O[C@H](COP(=O)(O)OCCCCC[C@@H]2SC[C@@H]3NC(=O)N[C@@H]32)[C@@H](O)[C@H]1O [btnOH-AMP] | – | – | – | btnOH-AMP binding to BirA^wt is linked to proton release |
